Experiment [1] concerns A. fumigatus Tsukuba strain. The experiment can be described thus: Anti-Aspergillus activity, MIC measurement. Particulars: RPMI1640, 42-48 hours at 35° C., visual inspection, read-out: Anti-Aspergillus Activity (minimum inhibitory concentration, MIC). The experiment is classed as cell-based. The protocol: (§1) For the C. albicans CAF2-1 strain, a fungal suspension from a standing culture for 48 hours at 30° C. in a Sabouraud dextrose liquid culture medium (SDB) was diluted with RPMI1640 medium to adjust a fungal suspension of 1.2×10^3 cells/mL. For the A. fumigatus Tsukuba strain, −80° C. stored strain was diluted with RPMI1640 medium to adjust to a fungal suspension of 4.5×10^3 cells/mL.
(§2) Using a U-bottomed 96 well plate, 8 samples/plate (A to H) of sample dilution solutions were prepared. On the 2nd to 12th rows were dispensed 10 μL of dimethyl sulfoxide solution. Weighted sample was dissolved in dimethyl sulfoxide to prepare a 2.5 mg/mL solution, 20 μL of this solution was added to the first row of the prepared plate, and 12 steps of two-fold step dilutions (10 μL of solution+10 μL of dimethyl sulfoxide solution) were performed on the plate. This sample dilution solution was dispensed in the amount of 1 μL to a flat-bottomed 96 well plate for MIC measurement to prepare a sample dilution plate.
(§3) The fungal suspension prepared in (1) was used in the amount of 99 μL/well to inoculate the flat-bottomed 96 well plate containing 1 μL/well of the test compound dilution prepared in (2), and a standing culture was carried out aerobically for 42-48 hours at 35° C.

Experiment [2] has as its system C. albicans CAF2-1 strain. In words: Anti-Candida activity, MIC measurement. The format is cell-based. Particulars: CAF21STRAIN, C. albicans CAF2-1, RPMI1640, 42-48 hours at 35° C., visual inspection, read-out: Anti-Candida Activity (minimum inhibitory concentration, MIC). On the procedure: as §1, §2, §3

Converted amounts (≈) assume the structure as drawn.

Take `Cc1ccc(Oc2ccc(Cc3cc(-c4ccc(N)nc4N)on3)s2)cc1` [Example 106, 3-(3-(5-p-Tolyloxy-thiophen-2-ylmethyl)-isoxazol-5-yl)-pyridin-2,6-diamine]: the MIC in experiment [1] is 0.2 µg/mL (≈ 0.528 µM); in experiment [2], 0.78 µg/mL (≈ 2.06 µM).
For `Nc1ccc(-c2cc(Cc3ccc(OCc4ccncc4)cc3)no2)c(N)n1` [Example 107, 3-(3-(4-(Pyridin-4-ylmethoxy)-benzyl)-isoxazol-5-yl)-pyridin-2,6-diamine], in that order: 0.78 µg/mL (≈ 2.09 µM) and 0.78 µg/mL (≈ 2.09 µM).
Regarding `Nc1ccc(-c2cc(Cc3ccc(OCc4cccnc4)cc3)no2)c(N)n1` [Example 108, 3-(3-(4-(Pyridin-3-ylmethoxy)-benzyl)-isoxazol-5-yl)-pyridin-2,6-diamine], the MIC in experiment [1] is 3.13 µg/mL (≈ 8.38 µM); in experiment [2], 1.56 µg/mL (≈ 4.18 µM).
Take `Nc1ccc(-c2cc(Cc3ccc(COc4cc(F)ccn4)cc3)no2)c(N)n1` [Example 117, 3-(3-(4-(4-Fluoro-pyridin-2-yloxymethyl)-benzyl)-isoxazol-5-yl)-pyridin-2,6-diamine]: the MIC in experiment [1] is 0.78 µg/mL (≈ 1.99 µM); in experiment [2], 1.56 µg/mL (≈ 3.99 µM).
The like results for `Nc1ccc(-c2cc(Cc3cccc(OCc4ccccn4)c3)no2)c(N)n1` [Example 118, 3-(3-(3-(Pyridin-2-ylmethoxy)-benzyl)-isoxazol-5-yl)-pyridin-2,6-diamine] were, in that order, 3.13 µg/mL (≈ 8.38 µM) and 0.78 µg/mL (≈ 2.09 µM).
For `Nc1ccc(-c2cc(Cc3cccc(OCc4ccccc4)c3)no2)c(N)n1` [Example 119, 3-(3-(3-Benzyloxy-benzyl)-isoxazol-5-yl)-pyridin-2,6-diamine], the MIC is 0.78 µg/mL (≈ 2.09 µM) in experiment [1] and 0.39 µg/mL (≈ 1.05 µM) in experiment [2].
Regarding `Nc1ccc(-c2cc(Cc3ccc(Oc4ccccc4)cn3)no2)c(N)n1` [Example 121, 3-(3-(5-Phenoxy-pyridin-2-ylmethyl)-isoxazol-5-yl)-pyridin-2,6-diamine], the MIC worked out at 0.78 µg/mL (≈ 2.17 µM) in experiment [1] and 0.39 µg/mL (≈ 1.09 µM) in experiment [2].
For the compound `Nc1ccc(-c2cc(Cc3ccc(OCc4ccc(Cl)cn4)cc3)no2)c(N)n1` [Example 122, 3-(3-(4-(5-Chloro-pyridin-2-ylmethoxy)-benzyl)-isoxazol-5-yl)-pyridin-2,6-diamine], the MIC in experiment [1] turned out to be 0.78 µg/mL (≈ 1.91 µM); in experiment [2] it was 1.56 µg/mL (≈ 3.82 µM).
For the compound `Nc1ccc(-c2cc(Cc3cccc(Oc4ccccc4)c3)no2)c(N)n1` [Example 123, 3-(3-(3-Phenoxy-benzyl)-isoxazol-5-yl)-pyridin-2,6-diamine], the MIC in experiment [1] is 0.39 µg/mL (≈ 1.09 µM); in experiment [2] it was 0.2 µg/mL (≈ 0.558 µM).
For `CCCCOc1cccc(Cc2cc(-c3ccc(N)nc3N)on2)c1` [Example 124, 3-(3-(3-Butoxy-benzyl)-isoxazol-5-yl)-pyridin-2,6-diamine], the MIC stood at 0.39 µg/mL (≈ 1.15 µM) in experiment [1] and 0.2 µg/mL (≈ 0.591 µM) in experiment [2].
Turning to `Nc1ccc(-c2cc(Cc3cccc(OCC4CC4)c3)no2)c(N)n1` [Example 125, 3-(3-(3-Cyclopropylmethoxy-benzyl)-isoxazol-5-yl)-pyridin-2,6-diamine], the MIC in experiment [1] is 0.39 µg/mL (≈ 1.16 µM); in experiment [2], 0.1 µg/mL (≈ 0.297 µM).
As to `CCCCOc1ccc(Cc2cc(-c3ccc(N)nc3N)on2)cc1` [Example 126, 3-(3-(4-Butoxy-benzyl)-isoxazol-5-yl)-pyridin-2,6-diamine], the MIC turned out to be 0.39 µg/mL (≈ 1.15 µM) in experiment [1] and 1.56 µg/mL (≈ 4.61 µM) in experiment [2].
Regarding `Nc1ccc(-c2cc(Cc3ccc(OCc4ccccc4)cn3)no2)c(N)n1` [Example 127, 3-(3-(5-Benzyloxy-pyridin-2-ylmethyl)-isoxazol-5-yl)-pyridin-2,6-diamine], the MIC in experiment [1] stood at 1.56 µg/mL (≈ 4.18 µM); in experiment [2], 0.78 µg/mL (≈ 2.09 µM).
As to `Nc1ccc(-c2cc(Cc3ccc(NCc4ccccc4)cc3)no2)c(N)n1` [Example 128, 3-(3-(4-Benzylamino-benzyl)-isoxazol-5-yl)-pyridin-2,6-diamine], the figures for the MIC in experiment [1] and in experiment [2] were 0.39 µg/mL (≈ 1.05 µM) and 0.2 µg/mL (≈ 0.538 µM), respectively.
For `Nc1ccc(-c2cc(Cc3ccc(Nc4ccccc4)cc3)no2)c(N)n1` [Example 129, 3-(3-(4-Phenylamino-benzyl)-isoxazol-5-yl)-pyridin-2,6-diamine], in that order: 0.2 µg/mL (≈ 0.56 µM) and 0.2 µg/mL (≈ 0.56 µM).
The like results for `CCCCc1ccc(Cc2cc(-c3ccc(N)nc3N)on2)cc1` [Example 130, 3-(3-(4-Butyl-benzyl)-isoxazol-5-yl)-pyridin-2,6-diamine] were, in that order, 0.2 µg/mL (≈ 0.62 µM) and 1.56 µg/mL (≈ 4.84 µM).
With `Nc1ccc(-c2cc(Cc3ccc(COc4ccc(F)cc4)nc3)no2)c(N)n1` [Example 132, 3-(3-(6-(4-Fluoro-phenoxymethyl)-pyridin-3-ylmethyl)-isoxazol-5-yl)pyridin-2,6-diamine], the MIC in experiment [1] and in experiment [2] was 3.13 µg/mL (≈ 8 µM) each time.
`Nc1ccc(-c2cc(Cc3ccc(Oc4ccccc4F)nc3)no2)c(N)n1` [Example 134, 3-(3-(6-(2-Fluoro-phenoxy)-pyridin-3-ylmethyl)-isoxazol-5-yl)-pyridin-2,6-diamine]: the figures for the MIC in experiment [1] and in experiment [2] were 0.78 µg/mL (≈ 2.07 µM) and 0.39 µg/mL (≈ 1.03 µM), respectively.
Consider `Nc1ccc(-c2cc(Cc3ccc(OCc4ccsc4)cc3)no2)c(N)n1` [Example 136, 3-(3-(4-(Thiophen-3-ylmethoxy)-benzyl)-isoxazol-5-yl)-pyridin-2,6-diamine], for which the MIC in experiment [1] and in experiment [2] was 0.2 µg/mL (≈ 0.528 µM) in each case.
Turning to `Nc1ccc(-c2cc(Cc3ccc(OC4CCCC4)cc3)no2)c(N)n1` [Example 137, 3-(3-(4-Cyclopentyloxy-benzyl)-isoxazol-5-yl)-pyridin-2,6-diamine], the MIC came out at 1.56 µg/mL (≈ 4.45 µM) in experiment [1] and 0.78 µg/mL (≈ 2.23 µM) in experiment [2].
The like results for `Nc1ccc(-c2cc(Cc3ccc(Oc4cccnc4)cc3)no2)c(N)n1` [Example 138, 3-(3-(4-(Pyridin-3-yloxy)-benzyl)-isoxazol-5-yl)-pyridin-2,6-diamine] were, in that order, 0.78 µg/mL (≈ 2.17 µM) and 0.78 µg/mL (≈ 2.17 µM).
With `Nc1ccc(-c2cc(Cc3ccc(OC4CCCCC4)cc3)no2)c(N)n1` [Example 139, 3-(3-(4-Cyclohexyloxy-benzyl)-isoxazol-5-yl)-pyridin-2,6-diamine], the MIC is more than 25 µg/mL in experiment [1] and 1.56 µg/mL (≈ 4.28 µM) in experiment [2].
On to `Nc1ccc(-c2cc(Cc3ccc(CCc4ccco4)cc3)no2)c(N)n1` [Example 140, 3-(3-(4-(2-Furan-2-yl-ethyl)-benzyl)-isoxazol-5-yl)-pyridin-2,6-diamine], for which the MIC worked out at 0.78 µg/mL (≈ 2.16 µM) in experiment [1] and 0.2 µg/mL (≈ 0.555 µM) in experiment [2].
For the compound `Nc1ccc(-c2cc(Cc3ccc(Oc4ccc(F)cc4)cc3)no2)c(N)n1` [Example 141, 3-(3-(4-(4-Fluoro-phenoxy)-benzyl)-isoxazol-5-yl)-pyridin-2,6-diamine], the figures for the MIC in experiment [1] and in experiment [2] were 0.2 µg/mL (≈ 0.531 µM) and 0.39 µg/mL (≈ 1.04 µM), respectively.
As for `Nc1ccc(-c2cc(Cc3ccc(Oc4cccc(F)c4)cc3)no2)c(N)n1` [Example 142, 3-(3-(4-(3-Fluoro-phenoxy)-benzyl)-isoxazol-5-yl)-pyridin-2,6-diamine], the MIC in experiment [1] and in experiment [2] was 0.39 µg/mL (≈ 1.04 µM) throughout.
For `Nc1ccc(-c2cc(Cc3ccc(CCC4CCCO4)cc3)no2)c(N)n1` (centres unmarked) [Example 143], the MIC in experiment [1] was determined as 0.78 µg/mL (≈ 2.14 µM); in experiment [2], 0.39 µg/mL (≈ 1.07 µM).
With `Nc1ccc(-c2cc(Cc3ccc(Oc4ccccc4F)cc3)no2)c(N)n1` [Example 144, 3-(3-(4-(2-Fluoro-phenoxy)-benzyl)-isoxazol-5-yl)-pyridin-2,6-diamine], the results for the MIC in experiment [1] and in experiment [2] were 0.2 µg/mL (≈ 0.531 µM) and 0.39 µg/mL (≈ 1.04 µM), respectively.
Regarding `Nc1ccc(-c2cc(Cc3cncc(Oc4ccccc4)c3)no2)c(N)n1` [Example 145, 3-(3-(5-Phenoxy-pyridin-3-ylmethyl)-isoxazol-5-yl)-pyridin-2,6-diamine], the MIC in experiment [1] amounted to 12.5 µg/mL (≈ 34.8 µM); in experiment [2], 6.25 µg/mL (≈ 17.4 µM).
On to `Nc1ccc(-c2cc(Cc3cccc(-c4ccccn4)c3)no2)c(N)n1` [Example 146, 3-(3-(3-Pyridin-2-yl-benzyl)-isoxazol-5-yl)-pyridin-2,6-diamine], for which the MIC in experiment [1] is more than 25 µg/mL; in experiment [2] it was 6.25 µg/mL (≈ 18.2 µM).
Take `Nc1ccc(-c2cc(Cc3cccc(-c4ccccc4)c3)no2)c(N)n1` [Example 147, 3-(3-Biphenyl-3-ylmethyl-isoxazol-5-yl)-pyridin-2,6-diamine]: the MIC in experiment [1] and in experiment [2] was 1.56 µg/mL (≈ 4.56 µM) throughout.
In the case of `Nc1ccc(-c2cc(Cc3ccc(COc4ccccc4)cc3)no2)c(N)n1` [Example 148, 3-(3-(4-Phenoxymethyl-benzyl)-isoxazol-5-yl)-pyridin-2,6-diamine], the MIC in experiment [1] and in experiment [2] was 0.2 µg/mL (≈ 0.537 µM) each time.
In the case of `Nc1ccc(-c2cc(Cc3ccc(COc4ncccc4F)cc3)no2)c(N)n1` [Example 149, 3-(3-(4-(3-Fluoro-pyridin-2-yloxymethyl)-benzyl)-isoxazol-5-yl)-pyridin-2,6-diamine], the MIC in experiment [1] worked out at 1.56 µg/mL (≈ 3.99 µM); in experiment [2] it was 6.25 µg/mL (≈ 16 µM).
With `Nc1ccc(-c2cc(Cc3ccc(OCc4ccccn4)c(F)c3)no2)c(N)n1` [Example 150, 3-(3-(3-Fluoro-4-(pyridin-2-ylmethoxy)-benzyl)-isoxazol-5-yl)-pyridin-2,6-diamine], the MIC was found to be 0.78 µg/mL (≈ 1.99 µM) in experiment [1] and 0.39 µg/mL (≈ 0.996 µM) in experiment [2].
Regarding `Nc1ccc(-c2cc(Cc3ccc(OCc4ccc(F)c(F)c4)nc3)no2)c(N)n1` [Example 152, 3-(3-(6-(3,4-Difluoro-benzyloxy)-pyridin-3-ylmethyl)-isoxazol-5-yl)-pyridin-2,6-diamine], the MIC in experiment [1] stood at 0.39 µg/mL (≈ 0.953 µM); in experiment [2], 0.78 µg/mL (≈ 1.91 µM).

The values are drawn from US8158657B2, “Heterocycles substituted pyridine derivatives and antifungal agent containing thereof” (Eisai R&D Management Co., Ltd., priority 2005, dated 2012).
